In US5869476A, “Pyrimidinone derivatives” (Boryung Pharmaceutical Co., Ltd., priority 1994, dated 1999) one finds IC50 data, which are given here for 25 compounds.

The first test deals with T1, angiotensin II receptor (Oryctolagus cuniculus, UniProt P34976).
T1 construct: The aorta was cut into 3~4 mm to form ring samples; from tissue; host or cells: isolated aorta rings of New Zealand White rabbits
T1 sequence (P34976 1-359): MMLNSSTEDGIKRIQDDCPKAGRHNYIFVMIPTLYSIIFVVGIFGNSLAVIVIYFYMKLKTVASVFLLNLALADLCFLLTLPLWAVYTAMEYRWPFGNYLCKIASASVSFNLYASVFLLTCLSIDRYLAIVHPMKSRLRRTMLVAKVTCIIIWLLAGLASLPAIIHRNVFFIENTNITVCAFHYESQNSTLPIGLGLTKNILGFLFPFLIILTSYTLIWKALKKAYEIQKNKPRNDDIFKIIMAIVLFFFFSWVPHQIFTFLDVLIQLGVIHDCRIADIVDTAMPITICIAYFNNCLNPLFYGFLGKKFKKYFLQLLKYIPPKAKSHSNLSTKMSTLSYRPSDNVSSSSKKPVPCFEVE
Briefly: inhibition of angiotensin II induced contraction of isolated rabbit aorta rings. The class given is cell-based, New Zealand White rabbit. The following applies: test compound incubated 20 minutes, 37° C., pH 7.4, read-out: IC50 (concentration being required to inhibit angiotensin II induced contraction by 50%). On the procedure:
The antagonistic activity of the representative compounds of the invention was evaluated using the methodology describe below.
From New Zealand White rabbits (male or female, 2~2.5 kg), aorta was isolated, and fat and connected tissue were removed therefrom. The aorta was cut into 3~4 mm to form ring samples. The aorta sample was suspended in 20 ml of organ bath (37° C.) containing modified Krebs-Henseleit solution saturated with 95% O2 /5% CO2 (pH 7.4).
The aorta preparation was exposed consecutively to 2 g of tensile strength for 90 minutes intermittently washing the sample with 30 minutes interval and then to 30 mM of KCl to observe contraction response. After washing more than three times, the aorta preparation was again allowed to contract three times for stabilization by adding Angiotensin II ([…]) thereto with 30 minutes interval. The third contraction response to Angiotensin II was considered as control.
10 minutes after the third contraction, the test compound was administered to the aorta preparation, which was incubated for 20 minutes.
Comparing angiotensin II contraction curve obtained from the above inhibition test with that of the control, IC50 (concentration being required to inhibit angiotensin II induced contraction by 50%) was determined for each test compound(Table 1).
Turning to `CCCCc1nc(=O)c(CC(=O)OCC)c(C)n1Cc1ccc(-c2ccccc2-c2nnn[nH]2)cc1` [Compound 18, 2-n-butyl-5-ethoxycarbonylmethyl-6-methyl-1-[[2'-(1H-tetrazol-5-yl)biphenyl-4-yl]methyl]-pyrimidin-4-(1H)-one], the IC50 was 93.3 nM.
Same read-out and setting: next, `CCCCc1nc(C)c(CC(=O)N(C)C)c(=O)n1Cc1ccc(-c2ccccc2-c2nnn[nH]2)cc1` [Compound 22, 2-n-butyl-5-dimethylaminocarbonylmethyl-6-methyl-3-[[2'-(1H-tetrazol-5-yl)biphenyl-4-yl]methyl]-pyrimidin-4-(3H)-one]: 2.37 nM; `CCCCc1nc(=O)c(CC(=O)O)c(C)n1Cc1ccc(-c2ccccc2-c2nnn[nH]2)cc1` [Compound 20, 2-n-butyl-5-carboxymethyl-6-methyl-1-[[2'-(1H-tetrazol-5-yl)-biphenyl-4-yl]methyl]-pyrimidin-4-(1H)-one]: 8.53 nM; `CCCCc1nc(C)c(CC(=O)N2CCCCC2)c(=O)n1Cc1ccc(-c2ccccc2-c2nn[nH]n2)cc1` [Compound 45, 2-n-butyl-5-piperidinocarbonylmethyl-6-methyl-3-[[2'-(1H-tetrazol-5-yl)biphenyl-4-yl]methyl]-pyrimidin-4-(3H)-one]: 2.46 nM.
Same read-out and setting: next, `CCCCc1nc(C)c(CCC(=O)N2CCC(C(N)=O)CC2)c(=O)n1Cc1ccc(-c2ccccc2-c2nn[nH]n2)cc1` [Compound 68, 2-n-butyl-5-[2'-(4"-aminocarbonylpiperidino)carbonylethyl]-6-methyl-3-[[2'-(1H-tetrazol-5-yl)biphenyl-4-yl]methyl]-pyrimidin-4-(3H)-one]: 2.29 nM; `CCCCc1nc(C)c(CC(=O)N2CCOCC2)c(=O)n1Cc1ccc(-c2ccccc2-c2nn[nH]n2)cc1` [Compound 73, 2-n-butyl-5-morpholinocarbonylmethyl-6-methyl-3-[[2'-(1H-tetrazol-5-yl)biphenyl-4-yl]methyl]-pyrimidin-4-(3H)-one]: 1.75 nM.
For the compound `CCCCc1nc(C)c(CC(=O)N2CC=CC2)c(=O)n1Cc1ccc(-c2ccccc2-c2nn[nH]n2)cc1` [Compound 44, 2-n-butyl-5-(3'-pyrrolinocarbonylmethyl)-6-methyl-3-[[2'-(1H-tetrazol-5-yl)biphenyl-4-yl]methyl]-pyrimidin-4-(3H)-one], the IC50 is 2.04 nM.
The same measure, in the same setting: the same measure for `CCCCc1nc(C)c(CCC(=O)OCC)c(=O)n1Cc1ccc(-c2ccccc2-c2nnn[nH]2)cc1` [Compound 23, 2-n-butyl-5-(2'-ethoxycarbonylethyl) -6-methyl-3-[[2'-(1H-tetrazol-5-yl)biphenyl-4-yl]methyl]-pyrimidin-4-(3H)-one]: 3.5 nM; for `CCCCc1nc(C)c(CC(=O)N2CCC[C@H]2C(=O)OC)c(=O)n1Cc1ccc(-c2ccccc2-c2nn[nH]n2)cc1` [Compound 42, 2-n-butyl-5-[(S)-2'-methoxycarbonylpyrrolidinocarbonylmethyl]-6-methyl-3-[[2'-(1H-tetrazol-5-yl)biphenyl-4-yl]methyl]-pyrimidin-4-(3H)-one]: 2.06 nM.
In the case of `CCCCc1nc(C)c(CCC(=O)N2CCCCCCC2)c(=O)n1Cc1ccc(-c2ccccc2-c2nn[nH]n2)cc1` [Compound 71, 2-n-butyl-5-(2'-heptamethyleneiminocarbonylethyl)-6-methyl-3-[[2'-(1 H-tetrazol-5-yl)biphenyl-4-yl]methyl]-pyrimidin-4-(3H)-one], the IC50 was found to be 16.8 nM.
On the same count and under the same terms, next, `CCCCc1nc(C)c(CCCC(=O)OCC)c(=O)n1Cc1ccc(-c2ccccc2-c2nnn[nH]2)cc1` [Compound 29, 2-n-butyl-5-(3'-ethoxycarbonylpropyl)-6-methyl-3-[[2'-(1H-tetrazol-5-yl)biphenyl-4-yl]methyl]-pyrimidin-4-(3H)-one]: 17 nM; `CCCCc1nc(C)c(CC(=O)N2CCN(C(C)=O)CC2)c(=O)n1Cc1ccc(-c2ccccc2-c2nn[nH]n2)cc1` [Compound 77, 2-n-butyl-5-(4'-acetylpiperazinocarbonylmethyl)-6-methyl-3-[[2'-(1H-tetrazol-5-yl)biphenyl-4-yl]methyl]-pyrimidin-4-(3H)-one]: 2.17 nM.
With `CCCCc1nc(C)c(CCC(=O)O)c(=O)n1Cc1ccc(-c2ccccc2-c2nnn[nH]2)cc1` [Compound 25, 2-n-butyl-5-(2'-carboxyethyl)-6-methyl-3-[[2'-(1H-tetrazol-5-yl)-biphenyl-4-yl]methyl]-pyrimidin-4-(3H)-one], the IC50 was 9.43 nM.
For the compound `CCc1nc(=O)c(CC(=O)O)c(C)n1Cc1ccc(-c2ccccc2-c2nnn[nH]2)cc1` [Compound 3, 2-ethyl-5-carboxymethyl-6-methyl-1-[[2'-(1H-tetrazol-5-yl)-biphenyl-4-yl]methyl]-pyrimidin-4-(1H)-one], the IC50 is 22.3 nM.
As for `CCCCc1nc(C)c(CCC(=O)N2CCC[C@H]2C(=O)OC)c(=O)n1Cc1ccc(-c2ccccc2-c2nn[nH]n2)cc1` [Compound 59, 2-n-butyl-5-[2'-((S)-2"-methoxycarbonylpyrrolidino)-carbonylethyl]-6-methyl-3-[[2'-(1H-tetrazol-5-yl)biphenyl-4-yl]-methyl]-pyrimidin-4-(3H)-one], the IC50 was 3.36 nM.
For the compound `CCCCc1nc(C)c(CCC(=O)N2CC=CC2)c(=O)n1Cc1ccc(-c2ccccc2-c2nn[nH]n2)cc1` [Compound 61, 2-n-butyl-5-[2'-(3"-pyrrolino)carbonylethyl]-6-methyl-3-[[2'-(1H-tetrazol-5-yl)biphenyl-4-yl]methyl]-pyrimidin-4-(3H)-one], the IC50 was determined as 7.85 nM.
Same read-out and setting: the same measure for `CCCCc1nc(CC)c(CCC(=O)OCC)c(=O)n1Cc1ccc(-c2ccccc2-c2nn[nH]n2)cc1` [Compound 33, 2-n-butyl-5-(2'-ethoxycarbonylethyl)-6-ethyl-3-[[2'-(1H-tetrazol-5-yl)biphenyl-4-yl]methyl]-pyrimidin-4-(3H)-one]: 11.2 nM; for `CCCCc1nc(=O)c(CCC(=O)O)c(CCC)n1Cc1ccc(-c2ccccc2-c2nn[nH]n2)cc1` [Compound 37, 2-n-butyl-5-(2'-carboxyethyl)-6-propyl-1-[[2'-(1H-tetrazol-5-yl)-biphenyl-4-yl]methyl]-pyrimidin-4-(1H)-one]: 115 nM; for `CCCCc1nc(C)c(CCCC(=O)N(CC)CC)c(=O)n1Cc1ccc(-c2ccccc2-c2nn[nH]n2)cc1` [Compound 32, 2-n-butyl-5-(3'-diethylaminocarbonylpropyl)-6-methyl-3-[[2'-(1H-tetrazol-5-yl)biphenyl-4-yl]methyl]-pyrimidin-4-(3H )-one]: 2.95 nM.
On to `CCc1nc(=O)c(CCC(=O)O)c(C)n1Cc1ccc(-c2ccccc2-c2nnn[nH]2)cc1` [Compound 7, 2-ethyl-5-(2'-carboxyethyl)-6-methyl-1-[[2'-(1H-tetrazol-5-yl)-biphenyl-4-yl]methyl]-pyrimidin-4-(1H)-one], for which the IC50 amounted to 2.84 nM.
Same read-out and setting: the same measure for `CCc1nc(C)c(CCC(=O)N(CC)CC)c(=O)n1Cc1ccc(-c2ccccc2-c2nnn[nH]2)cc1` [Compound 8, 2-ethyl-5-(2'-diethylaminocarbonylethyl)-6-methyl-3-[[2'-(1H-tetrazol-5-yl)biphenyl-4-yl]methyl]-pyrimidin-4(3H)-one]: 73.6 nM; for `CCCCc1nc(C)c(CC(=O)N2CCCCCCC2)c(=O)n1Cc1ccc(-c2ccccc2-c2nn[nH]n2)cc1` [Compound 57, 2-n-butyl-5-heptamethyleneiminocarbonylmethyl-6-methyl-3-[[2'-(1H-tetrazol-5-yl)biphenyl-4-yl]methyl]-pyrimidin-4-(3H)-one]: 3.6 nM; for `CCCCc1nc(=O)c(CC(=O)N2CCCC2)c(C)n1Cc1ccc(-c2ccccc2-c2nn[nH]n2)cc1` [Compound 41, 2-n-butyl-5-pyrrolidinocarbonylmethyl-6-methyl-1-[[2'-(1H-tetrazol-5-yl)biphenyl-4-yl]methyl]-pyrimidin-4-(1H) -one]: 119 nM.
In the case of `CCCCc1nc(C)c(CC(=O)N2[C@H](C)CCC[C@@H]2C)c(=O)n1Cc1ccc(-c2ccccc2-c2nn[nH]n2)cc1` [Compound 50, 2-n-butyl-5-(cis-2',6'-dimethylpiperidinocarbonylmethyl)-6-methyl-3-[[2'-(1H-tetrazol-5-yl)biphenyl-4-yl]methyl]-pyrimidin-4-(3H)-one], the IC50 came to 28.4 nM.

Staying with this test, now noted: test compound incubated 20 minutes, value given in M, read-out: IC50 (concentration being required to inhibit angiotensin II induced contraction by 50%).
Regarding `CCCCc1nc(C)c(CC(=O)N2CCC(C)CC2)c(=O)n1Cc1ccc(-c2ccccc2-c2nn[nH]n2)cc1` [Compound 48, 2-n-butyl-5-(4'-methylpiperidinocarbonylmethyl)-6-methyl-3-[[2'-(1H-tetrazol-5-yl)biphenyl-4-yl]methyl]-pyrimidin-4-(3H)-one], the IC50 is more than 10000 nM.
